{"source": "ChEMBL document CHEMBL5308541", "about": "“MAIP: An Open-Source Tool to Enrich High-Throughput Screening Output and Identify Novel, Druglike Molecules with Antimalarial Activity” (ACS Med Chem Lett, 2023)", "key": {"Plasmodium falciparum [1]": {"tested_on": "Plasmodium falciparum", "experiment": "Hit confirmation in dose-response curve in NF54 pLDH assay, at 72h", "type": "functional, organism-based, Erythrocyte", "parameters": "timepoint 72 hour", "settings": "erythrocyte"}, "Plasmodium falciparum [2]": {"tested_on": "Plasmodium falciparum", "experiment": "Hit confirmation in dose-response curve in Dd2 pLDH assay, at 72h", "type": "functional, organism-based, Erythrocyte", "parameters": "timepoint 72 hour", "settings": "erythrocyte"}, "Plasmodium falciparum [3]": {"tested_on": "Plasmodium falciparum", "experiment": "Re-testing in dose-response curve in Dd2 pLDH assay, at 72h", "type": "functional, organism-based, Erythrocyte", "parameters": "timepoint 72 hour"}, "HepG2 [4]": {"tested_on": "HepG2", "experiment": "Re-testing in dose-response curve in HepG2 cytotoxicity assay, at 72h", "type": "toxicity, cell-based, Homo sapiens", "parameters": "timepoint 72 hour", "settings": "hepg2"}, "Plasmodium falciparum [5]": {"tested_on": "Plasmodium falciparum", "experiment": "Hit confirmation in dose-response curve in NF54 nanoGlo assay, at 12h", "type": "functional, organism-based, Erythrocyte", "parameters": "timepoint 12 hour", "settings": "erythrocyte"}, "Plasmodium falciparum [6]": {"tested_on": "Plasmodium falciparum", "experiment": "Hit confirmation in dose-response curve in NF54 nanoGlo assay, at 72h", "type": "functional, organism-based, Erythrocyte", "parameters": "timepoint 72 hour", "settings": "erythrocyte"}, "HepG2 [7]": {"tested_on": "HepG2", "experiment": "Hit confirmation in dose-response curve in HepG2 cytotoxicity assay, at 72h", "type": "toxicity, cell-based, Homo sapiens", "parameters": "timepoint 72 hour", "settings": "hepg2"}}, "data": [{"smiles": "CC(C)c1ccc(-c2nc(CN3CCCCC3)cc(CN3CCCCC3)c2O)cc1", "values": [{"measurement": "IC50", "setting": "Plasmodium falciparum [1]", "result": 2.69, "unit": "µM"}, {"measurement": "IC50", "setting": "Plasmodium falciparum [2]", "result": 1.58, "unit": "µM"}, {"measurement": "IC50", "setting": "Plasmodium falciparum [3]; Plasmodium falciparum, Dd2, Erythrocyte, 72 h", "result": 0.949, "unit": "µM"}, {"measurement": "IC50", "setting": "Plasmodium falciparum [3]; erythrocyte", "result": 0.923, "unit": "µM"}, {"measurement": "IC50", "setting": "HepG2 [4]", "result": "> 25", "unit": "µM"}, {"measurement": "IC50", "setting": "Plasmodium falciparum [5]", "result": 3.98, "unit": "µM"}, {"measurement": "IC50", "setting": "Plasmodium falciparum [6]", "result": 1.78, "unit": "µM"}, {"measurement": "IC50", "setting": "HepG2 [7]", "result": "> 10", "unit": "µM"}]}]}
